Data from patent US5202315A, “Cephalosporin compounds” (Lucky, Ltd., priority 1989, dated 1993).
In brackets after ≈: the same amount, converted by molar mass. Read-outs that look alike come from different tables or passages of the source.

Columns and labels:
Assay type in all cases: cell-based
[1] = tested on: Acinetobacter calcoaceticus ATCC 15473; test: Antibacterial activity, MIC; conditions: ATCC15473, ATCC 15473, agar two-fold dilution, 37° C., 20 hours, read-out: MIC
Outline: (§1)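 Plates of Mueller-Hinton agar containing two-fold serial dilutions of compound were inoculated with 2 μl of test strain suspension (10^7 CFU per ml) and incubated for 20 hours at 37 °C.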

[2] = tested on: Bacillus cereus ATCC 11778; test: Antibacterial activity, MIC; conditions: ATCC11778, ATCC 11778, agar two-fold dilution, 37° C., 20 hours, read-out: MIC
Outline: as §1

[3] = tested on: Bacillus megaterium ATCC 9885; test: Antibacterial activity, MIC; conditions: Priestia megaterium, ATCC9885; ATCC 9885; agar two-fold dilution, 37° C., 20 hours; read-out: MIC
Outline: as §1

[4] = tested on: Citrobacter freundii ATCC 8090; test: Antibacterial activity, MIC; conditions: ATCC8090, ATCC 8090, agar two-fold dilution, 37° C., 20 hours, read-out: MIC
Outline: as §1

[5] = tested on: Enterobacter aerogenes ATCC 29751; test: Antibacterial activity, MIC; conditions: Klebsiella aerogenes, ATCC29751; ATCC 29751; agar two-fold dilution, 37° C., 20 hours; read-out: MIC
Outline: as §1

[6] = tested on: Enterobacter cloacae ATCC 27508; test: Antibacterial activity, MIC; conditions: ATCC27508, ATCC 27508, agar two-fold dilution, 37° C., 20 hours, read-out: MIC
Outline: as §1

[7] = tested on: Escherichia coli ATCC 10536; test: Antibacterial activity, MIC; conditions: ATCC10536, agar two-fold dilution, 37° C., 20 hours
Outline: as §1

[8] = tested on: Escherichia coli ATCC 25922; test: Antibacterial activity, MIC; conditions: ATCC25922, agar two-fold dilution, 37° C., 20 hours
Outline: as §1

[9] = tested on: Klebsiella pneumoniae ATCC 10031; test: Antibacterial activity, MIC; conditions: ATCC10031, ATCC 10031, agar two-fold dilution, 37° C., 20 hours, read-out: MIC
Outline: as §1

[10] = tested on: Micrococcus luteus ATCC 9341; test: Antibacterial activity, MIC; conditions: ATCC9341, ATCC 9341, agar two-fold dilution, 37° C., 20 hours, read-out: MIC
Outline: as §1

[11] = tested on: Morganella morganii ATCC 8076h; test: Antibacterial activity, MIC; conditions: ATCC8076H, agar two-fold dilution, 37° C., 20 hours
Outline: as §1

[12] = tested on: Proteus mirabilis ATCC 25933; test: Antibacterial activity, MIC; conditions: ATCC25933, ATCC 25933, agar two-fold dilution, 37° C., 20 hours, read-out: MIC
Outline: as §1

[13] = tested on: Proteus vulgaris ATCC 6059; test: Antibacterial activity, MIC; conditions: ATCC6059, ATCC 6059, agar two-fold dilution, 37° C., 20 hours, read-out: MIC
Outline: as §1

[14] = tested on: Providencia rettgeri ATCC 9250; test: Antibacterial activity, MIC; conditions: ATCC9250, agar two-fold dilution, 37° C., 20 hours
Outline: as §1

[15] = tested on: Pseudomonas aeruginosa ATCC 10145; test: Antibacterial activity, MIC; conditions: ATCC10145, ATCC 10145, agar two-fold dilution, 37° C., 20 hours, read-out: MIC
Outline: as §1

[16] = tested on: Pseudomonas aeruginosa ATCC 25619; test: Antibacterial activity, MIC; conditions: ATCC25619, ATCC 25619, agar two-fold dilution, 37° C., 20 hours, read-out: MIC
Outline: as §1

[17] = tested on: Pseudomonas aeruginosa ATCC 27853; test: Antibacterial activity, MIC; conditions: ATCC27853, ATCC 27853, agar two-fold dilution, 37° C., 20 hours, read-out: MIC
Outline: as §1

[18] = tested on: Salmonella typhimurium ATCC 14028; test: Antibacterial activity, MIC; conditions: Salmonella enterica; ATCC 14028; agar two-fold dilution, 37° C., 20 hours; read-out: MIC
Outline: as §1

[19] = tested on: Serratia marcescens ATCC 27117; test: Antibacterial activity, MIC; conditions: ATCC27117, ATCC 27117, agar two-fold dilution, 37° C., 20 hours, read-out: MIC
Outline: as §1

[20] = tested on: Shigella flexneri ATCC 11836; test: Antibacterial activity, MIC; conditions: ATCC11836, agar two-fold dilution, 37° C., 20 hours
Outline: as §1

[21] = tested on: Shigella sonnei ATCC 11060; test: Antibacterial activity, MIC; conditions: ATCC11060, ATCC 11060, agar two-fold dilution, 37° C., 20 hours, read-out: MIC
Outline: as §1

[22] = tested on: Staphylococcus aureus ATCC 10537; test: Antibacterial activity, MIC; conditions: ATCC10537, ATCC 10537, agar two-fold dilution, 37° C., 20 hours, read-out: MIC
Outline: as §1

[23] = tested on: Staphylococcus aureus ATCC 6538p; test: Antibacterial activity, MIC; conditions: ATCC6538P, ATCC 6538p, agar two-fold dilution, 37° C., 20 hours, read-out: MIC
Outline: as §1

[24] = tested on: Staphylococcus epidermidis ATCC 12228; test: Antibacterial activity, MIC; conditions: ATCC12228, ATCC 12228, agar two-fold dilution, 37° C., 20 hours, read-out: MIC
Outline: as §1

[25] = tested on: Streptococcus faecalis ATCC 29212; test: Antibacterial activity, MIC; conditions: Enterococcus faecalis, ATCC29212; ATCC 29212; agar two-fold dilution, 37° C., 20 hours; read-out: MIC
Outline: as §1

[26] = tested on: Escherichia coli; test: Antibacterial activity against clinically isolated strains, MIC; conditions: 38 clinical isolates, broth microdilution test
[27] = tested on: Klebsiella pneumoniae; test: as above; conditions: 10 clinical isolates, broth microdilution test; for MIC90: read-out: MIC 90%
[28] = tested on: Staphylococcus aureus methicillin susceptible; test: as above; conditions: methicillin susceptible, 42 clinical isolates, broth microdilution test; for MIC90: read-out: MIC 90%
[29] = tested on: Staphylococcus aureus methicillin resistant; test: as above; conditions: methicillin resistant, 7 clinical isolates, broth microdilution test; for MIC90: read-out: MIC 90%
[30] = tested on: Pseudomonas aeruginosa; test: as above
[31] = 54 clinical isolates, broth microdilution test

SMILES	MIC [1] [µg/mL]	MIC [2] [µg/mL]	MIC [3] [µg/mL]	MIC [4] [µg/mL]	MIC [5] [µg/mL]	MIC [6] [µg/mL]	MIC [7] [µg/mL]	MIC [8] [µg/mL]	MIC [9] [µg/mL]	MIC [10] [µg/mL]	MIC [11] [µg/mL]	MIC [12] [µg/mL]	MIC [13] [µg/mL]	MIC [14] [µg/mL]	MIC [15] [µg/mL]	MIC [16] [µg/mL]	MIC [17] [µg/mL]	MIC [18] [µg/mL]	MIC [19] [µg/mL]	MIC [20] [µg/mL]	further results
C#CCO/N=C(\C(=O)NC1C(=O)N2C(C(=O)[O-])=C(CSc3nc(N)cc(N)[n+]3C)CSC12)c1csc(N)n1 (stereo not shown) [Compound I-46]	2 (≈ 3.47 µM)	8 (≈ 13.9 µM)	0.063 (≈ 0.109 µM)	0.063 (≈ 0.109 µM)	0.25 (≈ 0.434 µM)	≤ 0.008	0.063 (≈ 0.109 µM)	0.063 (≈ 0.109 µM)	≤ 0.008	0.016 (≈ 0.0278 µM)	≤ 0.008	0.063 (≈ 0.109 µM)	0.13 (≈ 0.226 µM)	≤ 0.008	4 (≈ 6.95 µM)	0.5 (≈ 0.869 µM)	2 (≈ 3.47 µM)	0.25 (≈ 0.434 µM)	0.13 (≈ 0.226 µM)	0.016 (≈ 0.0278 µM)	MIC [21]: 0.063 µg/mL (≈ 0.109 µM); MIC [22]: 0.13 µg/mL (≈ 0.226 µM); MIC [23]: 0.13 µg/mL (≈ 0.226 µM); MIC [24]: 0.031 µg/mL (≈ 0.0539 µM); MIC [25]: 16 µg/mL (≈ 27.8 µM); MIC50 [26]: 0.13 µg/mL (≈ 0.226 µM); MIC90 [26]: 0.25 µg/mL (≈ 0.434 µM); MIC50 [27]: 0.13 µg/mL (≈ 0.226 µM); MIC90 [27]: 0.13 µg/mL (≈ 0.226 µM); MIC50 [28]: 0.25 µg/mL (≈ 0.434 µM); MIC90 [28]: 0.25 µg/mL (≈ 0.434 µM); MIC50 [29]: > 32 µg/mL; MIC90 [29]: > 32 µg/mL; MIC50 [30, 31]: 4 µg/mL (≈ 6.95 µM); MIC90 ([30]; 54 clinical isolates, broth microdilution test, read-out: MIC 90%): 8 µg/mL (≈ 13.9 µM)
C#CCO/N=C(\C(=O)NC1C(=O)N2C(C(=O)[O-])=C(CSc3nc(N)cc(N)[n+]3CC)CSC12)c1csc(N)n1 (stereo not shown) [Compound I-47]	4 (≈ 6.78 µM)	8 (≈ 13.6 µM)	0.13 (≈ 0.22 µM)	0.13 (≈ 0.22 µM)	0.5 (≈ 0.848 µM)	0.016 (≈ 0.0271 µM)	0.13 (≈ 0.22 µM)	0.13 (≈ 0.22 µM)	≤ 0.008	≤ 0.008	≤ 0.008	0.13 (≈ 0.22 µM)	0.13 (≈ 0.22 µM)	≤ 0.008	8 (≈ 13.6 µM)	1 (≈ 1.7 µM)	2 (≈ 3.39 µM)	0.25 (≈ 0.424 µM)	0.13 (≈ 0.22 µM)	0.016 (≈ 0.0271 µM)	MIC [21]: 0.13 µg/mL (≈ 0.22 µM); MIC [22]: 0.13 µg/mL (≈ 0.22 µM); MIC [23]: 0.25 µg/mL (≈ 0.424 µM); MIC [24]: 0.031 µg/mL (≈ 0.0526 µM); MIC [25]: 32 µg/mL (≈ 54.3 µM); MIC50 [26]: 0.063 µg/mL (≈ 0.107 µM); MIC90 [26]: 0.25 µg/mL (≈ 0.424 µM); MIC50 [27]: 0.25 µg/mL (≈ 0.424 µM); MIC90 [27]: 0.25 µg/mL (≈ 0.424 µM); MIC50 [28]: 0.25 µg/mL (≈ 0.424 µM); MIC90 [28]: 0.25 µg/mL (≈ 0.424 µM); MIC50 [29]: 64 µg/mL (≈ 109 µM); MIC90 [29]: 64 µg/mL (≈ 109 µM); MIC90 [30]: 16 µg/mL (≈ 27.1 µM); MIC50 [30, 31]: 4 µg/mL (≈ 6.78 µM)
